Source: patent US20240199571A1, “THIOPHENE COMPOUND AND APPLICATION THEREOF” (MEDSHINE DISCOVERY INC., priority 2021, published 2024)
Structures can show the parent of a compound that is named as a salt.

target: human LSD1 (Homo sapiens (Human), UniProt O60341); assay: Experiment 1B: in vitro LSD1 enzyme activity, enzyme-coupled fluorescence (HRP/Amplex Red), H3(1-21)K4me2 peptide 10 μM (Reaction Biology); format: biochemical; conditions: histone H3(1-21)K4me2 peptide 10 μM
Procedure: Experiment 1B: Evaluation of Enzyme Activity
Testing unit: Reaction Biology Corp., USA.
The purpose of the assay was to test the in vitro inhibitory activity of the compounds against LSD1. The enzyme used in the assay was human LSD1, and the standard substrate was histone H3(1-21)K4me2 peptide (10 μM). The activity of the compounds was determined by the enzyme-coupling fluorescent method by the combined detection of H2O2 generated after the reaction of LSD1 by horseradish peroxidase (HRP) and the fluorescent reagent Amplex Red. Starting from 10 μM, the compounds were 3-fold diluted to detect the IC50 values of the compounds at 10 concentrations. The enzyme and substrate were incubated for 30 minutes before the compound was added to the substrate to start the reaction. Fluorescence detector: EnVision, excitation wavelength: Ex/Em=535/590 nM.

| Structure (SMILES) | IC50 [nM] |
| --- | --- |
| Cn1nnc2cc(-c3sc(C(=O)N4C5CCC4C(N)C5)cc3-c3ccc(C#N)c(F)c3)ccc21 (stereo not shown) [Compound 14] | 5.37 |
| COc1ccc(-c2sc(C(=O)N3CCCN(CC#N)CC3)cc2-c2ccc(C#N)c(F)c2)cc1F [Compound 40] | 95.6 |
| CC(C)(O)c1ccc(-c2sc(C(=O)N3CCC[C@@H](N)C3)cc2-c2ccc(C#N)c(F)c2)cc1 [Compound 50] | 28.3 |
| CC(C)(O)Cn1ncc2cc(-c3sc(C(=O)N4CCC[C@@H](N)C4)cc3-c3ccc(C#N)c(F)c3)ccc21 [Compound 57] | 10.4 |
| CC(C)(O)Cn1cc2cc(-c3sc(C(=O)N4CCC[C@@H](N)C4)cc3-c3ccc(C#N)c(F)c3)ccc2n1 [Compound 58] | 20.4 |
| CC(C)(O)Cn1ncc2cc(-c3sc(C(=O)N4CCC[C@@H](N)C4)cc3-c3ccc(C#N)c(F)c3)cnc21 [Compound 60] | 18.4 |
| N#Cc1ccc(-c2cc(C(=O)N3CCC[C@@H](N)C3)sc2-c2ccc3nccn3c2)cc1F [Compound 74] | 33.2 |
| N#Cc1ccc(-c2cc(C(=O)N3CCC[C@@H](N)C3)sc2-c2ccn3nccc3c2)cc1F [Compound 75] | 28.9 |
| N#Cc1ccc(-c2cc(C(=O)N3CCC[C@@H](N)C3)sc2-c2ccn3cncc3c2)cc1F [Compound 78] | 47.4 |
| N#Cc1ccc(-c2cc(C(=O)N3CCC[C@@H](N)C3)sc2-c2ccn3ccnc3c2)cc1F [Compound 84] | 13.2 |
| CN[C@@H]1CCCN(C(=O)c2cc(-c3ccc(C#N)c(F)c3)c(-c3ccc(N4CC(C)(O)C4)cc3)s2)C1 [Compound 122] | 13.1 |
| COc1ccc(-c2sc(C(=O)N3CCC[C@H](N)C3)cc2-c2ccc(C#N)c(F)c2)cc1F [Hydrochloride of compound 18] | 6.6 |
| COc1ccc(-c2sc(C(=O)N3CC[C@H](F)[C@@H](N)C3)cc2-c2ccc(C#N)c(F)c2)cc1F [Hydrochloride of compound 19] | 64.8 |
| COc1ccc(-c2sc(C(=O)N3CC[C@@H](F)[C@@H](N)C3)cc2-c2ccc(C#N)c(F)c2)cc1F [Hydrochloride of compound 20] | 19.4 |
| COc1ccc(-c2sc(C(=O)N3CCC[C@@H](N)C3)cc2-c2ccc(C#N)c(F)c2)c(F)c1 [Hydrochloride of compound 21] | 19.4 |
| COc1ccc(-c2sc(C(=O)N3CCC4(CC3)COCC4N)cc2-c2ccc(C#N)c(F)c2)cc1F (stereo not shown) [Hydrochloride of compound 23] | 76.8 |
| COc1ccc(-c2sc(C(=O)N3CCC(N(C)C)C3)cc2-c2ccc(C#N)c(F)c2)cc1F (stereo not shown) [Hydrochloride of compound 24] | 70.9 |

| Structure (SMILES) | IC50 [nM] |
| --- | --- |
| COc1ccc(-c2sc(C(=O)N3CCCNCC3C)cc2-c2ccc(C#N)c(F)c2)cc1F (stereo not shown) [Hydrochloride of compound 25] | 63.9 |
| COc1ccc(-c2sc(C(=O)N3CCCC(N(C)C)C3)cc2-c2ccc(C#N)c(F)c2)cc1F (stereo not shown) [Hydrochloride of compound 26] | 19.6 |
| COc1ccc(-c2sc(C(=O)N[C@@H]3CCNC3)cc2-c2ccc(C#N)c(F)c2)cc1F [Hydrochloride of compound 27] | 48.2 |
| COc1ccc(-c2sc(C(=O)N3CCNC(C)CC3)cc2-c2ccc(C#N)c(F)c2)cc1F (stereo not shown) [Hydrochloride of compound 29] | 29.7 |
| N#Cc1ccc(-c2cc(C(=O)N3CCC[C@@H](N)C3)sc2-c2ccc3[nH]c(=O)oc3c2)cc1F [Hydrochloride of compound 31] | 26.7 |
| N#Cc1ccc(-c2cc(C(=O)N3CCC[C@@H](N)C3)sc2-c2ccnc(N)c2)cc1F [Hydrochloride of compound 33] | 38 |
| Cn1c(=O)oc2ccc(-c3sc(C(=O)N4CCC[C@@H](N)C4)cc3-c3ccc(C#N)c(F)c3)cc21 [Hydrochloride of compound 34] | 36.5 |
| CN1Cc2ccc(-c3sc(C(=O)N4CCC[C@@H](N)C4)cc3-c3ccc(C#N)c(F)c3)cc2C1=O [Hydrochloride of compound 35] | 24.6 |
| N#Cc1ccc(-c2cc(C(=O)N3CCC[C@@H](N)C3)sc2-c2ccc3c(c2)OCO3)cc1F [Hydrochloride of compound 37] | 1.73 |
| CS(=O)(=O)c1ccc(-c2sc(C(=O)N3CCC[C@@H](N)C3)cc2-c2ccc(C#N)c(F)c2)cc1 [Hydrochloride of compound 44] | 70.6 |
| CC(C)S(=O)(=O)c1ccc(-c2sc(C(=O)N3CCC[C@@H](N)C3)cc2-c2ccc(C#N)c(F)c2)cc1 [Hydrochloride of compound 47] | 48.8 |
| N#Cc1ccc(-c2cc(C(=O)N3CCC[C@@H](N)C3)sc2-c2ccc(N)nc2)cc1F [Hydrochloride of compound 49] | 101 |
| Cn1cc(-c2sc(C(=O)N3CCC[C@@H](N)C3)cc2-c2ccc(C#N)c(F)c2)cn1 [Hydrochloride of compound 52] | 251 |
| N#Cc1ccc(-c2cc(C(=O)N3CCC[C@@H](N)C3)sc2-c2ccc3nn(C4CCOCC4)cc3c2)cc1F [Hydrochloride of compound 64] | 29.6 |
| N#Cc1ccc(-c2cc(C(=O)N3CCC[C@@H](N)C3)sc2-c2ccc3ncncc3c2)cc1F [Hydrochloride of compound 66] | 73.4 |
| N#Cc1ccc(-c2cc(C(=O)N3CCC[C@@H](N)C3)sc2-c2ccc3nn(C4CCOC4)cc3c2)cc1F (stereo partly shown) [Hydrochloride of compound 72] | 8.56 |
| N#Cc1ccc(-c2cc(C(=O)N3CCCNCC3)sc2-c2ccc(N3CC[C@H](O)C3)cc2)cc1F [Hydrochloride of compound 116] | 9.27 |

tested on: NCI-H1417 cells; assay: Experiment 2: inhibition of NCI-H1417 cell proliferation (CellTiter-Glo, 10 days); format: cell-based; conditions: Homo sapiens, 240 h, 10 days incubation
Procedure: Experiment 2: Evaluation of Inhibitory Activity on NCI-H1417 Cell Proliferation
Experimental purpose: To test the inhibitory activity of test compounds on NCI-H1417 cell proliferation.
Experimental materials: RPMI 1640 medium, fetal bovine serum, Promega CellTiter-Glo reagent. The NCI-H1417 cell line was purchased from ATCC. Envision multilabel plate reader (PerkinElmer).
Experimental method: The compounds were dissolved to 10 mM and 5-fold diluted with DMSO in the compound plates, starting with a concentration of 2 mM. 3-fold serial dilution was performed with Bravo to 10 concentrations. Then 250 nL of the compound solution was transferred to the upper and lower double duplicate wells of a blank 384 cell plate with Echo. To each well containing the transferred 250 nL of DMSO/compound was added a cell suspension of 1000 cells/50 μL per well, and the compound was diluted 200-fold, i.e., resulting in an initial working concentration of 10 μM. The cell plate was incubated in a carbon dioxide incubator for 10 days. To the cell plate was added 25 μL of Promega CellTiter-Glo reagent per well and the mixture was shaken for 10 minutes at room temperature to stabilize the luminescence signal. Readings were performed on a PerkinElmer Envision multilabel plate reader.
Data analysis: Raw data were converted into inhibition rate using the formula: (Max−Ratio)/(Max−Min)*100%. The IC50 values could then be derived from four-parameter curve fitting. (derived from 205 mode in XLFIT5, iDBS)
The compounds were tested for inhibitory activity of compounds on NCI-H1417 cell proliferation, and the results are shown in Table 3.

| Structure (SMILES) | IC50 [nM] |
| --- | --- |
| Cn1nnc2cc(-c3sc(C(=O)N4C5CCC4C(N)C5)cc3-c3ccc(C#N)c(F)c3)ccc21 (stereo not shown) [Compound 14] | 0.54 |
| COc1ccc(-c2sc(C(=O)N3CCCN(CC#N)CC3)cc2-c2ccc(C#N)c(F)c2)cc1F [Compound 40] | 18.7 |
| CC(C)(O)c1ccc(-c2sc(C(=O)N3CCC[C@@H](N)C3)cc2-c2ccc(C#N)c(F)c2)cc1 [Compound 50] | 9.19 |
| CC(C)(O)Cn1ncc2cc(-c3sc(C(=O)N4CCC[C@@H](N)C4)cc3-c3ccc(C#N)c(F)c3)ccc21 [Compound 57] | 1.53 |
| CC(C)(O)Cn1cc2cc(-c3sc(C(=O)N4CCC[C@@H](N)C4)cc3-c3ccc(C#N)c(F)c3)ccc2n1 [Compound 58] | 3.56 |
| CC(C)(O)Cn1ncc2cc(-c3sc(C(=O)N4CCC[C@@H](N)C4)cc3-c3ccc(C#N)c(F)c3)cnc21 [Compound 60] | 2.36 |
| N#Cc1ccc(-c2cc(C(=O)N3CCC[C@@H](N)C3)sc2-c2ccn3nccc3c2)cc1F [Compound 75] | 28 |
| N#Cc1ccc(-c2cc(C(=O)N3CCC[C@@H](N)C3)sc2-c2ccn3ccnc3c2)cc1F [Compound 84] | 25.9 |
| CN[C@@H]1CCCN(C(=O)c2cc(-c3ccc(C#N)c(F)c3)c(-c3ccc(N4CC(C)(O)C4)cc3)s2)C1 [Compound 122] | 9.83 |
| COc1ccc(-c2sc(C(=O)N3CCC[C@H](N)C3)cc2-c2ccc(C#N)c(F)c2)cc1F [Hydrochloride of compound 18] | 18.2 |
| COc1ccc(-c2sc(C(=O)N3CC[C@@H](F)[C@@H](N)C3)cc2-c2ccc(C#N)c(F)c2)cc1F [Hydrochloride of compound 20] | 32.3 |
| COc1ccc(-c2sc(C(=O)N3CCC[C@@H](N)C3)cc2-c2ccc(C#N)c(F)c2)c(F)c1 [Hydrochloride of compound 21] | 6.83 |
| COc1ccc(-c2sc(C(=O)N3CCC(N(C)C)C3)cc2-c2ccc(C#N)c(F)c2)cc1F (stereo not shown) [Hydrochloride of compound 24] | 30.6 |
| COc1ccc(-c2sc(C(=O)N3CCCC(N(C)C)C3)cc2-c2ccc(C#N)c(F)c2)cc1F (stereo not shown) [Hydrochloride of compound 26] | 6.87 |
| COc1ccc(-c2sc(C(=O)N3CCNC(C)CC3)cc2-c2ccc(C#N)c(F)c2)cc1F (stereo not shown) [Hydrochloride of compound 29] | 17.2 |
| N#Cc1ccc(-c2cc(C(=O)N3CCC[C@@H](N)C3)sc2-c2ccc3[nH]c(=O)oc3c2)cc1F [Hydrochloride of compound 31] | 11.3 |
| N#Cc1ccc(-c2cc(C(=O)N3CCC[C@@H](N)C3)sc2-c2ccnc(N)c2)cc1F [Hydrochloride of compound 33] | 16.2 |

| Structure (SMILES) | IC50 [nM] |
| --- | --- |
| Cn1c(=O)oc2ccc(-c3sc(C(=O)N4CCC[C@@H](N)C4)cc3-c3ccc(C#N)c(F)c3)cc21 [Hydrochloride of compound 34] | 9.92 |
| CN1Cc2ccc(-c3sc(C(=O)N4CCC[C@@H](N)C4)cc3-c3ccc(C#N)c(F)c3)cc2C1=O [Hydrochloride of compound 35] | 8.84 |
| N#Cc1ccc(-c2cc(C(=O)N3CCC[C@@H](N)C3)sc2-c2ccc3c(c2)OCO3)cc1F [Hydrochloride of compound 37] | 0.93 |
| CS(=O)(=O)c1ccc(-c2sc(C(=O)N3CCC[C@@H](N)C3)cc2-c2ccc(C#N)c(F)c2)cc1 [Hydrochloride of compound 44] | 8.87 |
| CC(C)S(=O)(=O)c1ccc(-c2sc(C(=O)N3CCC[C@@H](N)C3)cc2-c2ccc(C#N)c(F)c2)cc1 [Hydrochloride of compound 47] | 10.2 |
| N#Cc1ccc(-c2cc(C(=O)N3CCC[C@@H](N)C3)sc2-c2ccc3n[nH]cc3c2)cc1F [Hydrochloride of compound 63] | 28.6 |
| N#Cc1ccc(-c2cc(C(=O)N3CCC[C@@H](N)C3)sc2-c2ccc3nn(C4CCOCC4)cc3c2)cc1F [Hydrochloride of compound 64] | 16.2 |
| Cn1cc2ccc(-c3sc(C(=O)N4CCC[C@@H](N)C4)cc3-c3ccc(C#N)c(F)c3)cc2n1 [Hydrochloride of compound 65] | 11.1 |
| Cc1c2cc(-c3sc(C(=O)N4CCC[C@@H](N)C4)cc3-c3ccc(C#N)c(F)c3)ccc2nn1C [Hydrochloride of compound 71] | 0.64 |
| N#Cc1ccc(-c2cc(C(=O)N3CCC[C@@H](N)C3)sc2-c2ccc3nn(C4CCOC4)cc3c2)cc1F (stereo partly shown) [Hydrochloride of compound 72] | 4.47 |
| CN(C)[C@@H]1CCCN(C(=O)c2cc(-c3ccc(C#N)c(F)c3)c(-c3ccc4nn(C(C)(C)CO)cc4c3)s2)C1 [Hydrochloride of compound 105] | 6.14 |
| CN(C)[C@@H]1CCCN(C(=O)c2cc(-c3ccc(C#N)c(F)c3)c(-c3cc4nnn(CC(C)(C)O)c4c(F)c3F)s2)C1 [Hydrochloride of compound 106] | 0.19 |
| CN[C@@H]1CCCN(C(=O)c2cc(-c3ccc(C#N)c(F)c3)c(-c3ccc(N4CC[C@H](O)C4)cc3)s2)C1 [Hydrochloride of compound 108] | 2.11 |
| CN[C@@H]1CCCN(C(=O)c2cc(-c3ccc(C#N)c(F)c3)c(-c3ccc(N4CC[C@@H](O)C4)cc3F)s2)C1 [Hydrochloride of compound 113] | 3.98 |
| N#Cc1ccc(-c2cc(C(=O)N3CCC[C@@H](N)C3)sc2-c2ccc(N3CC[C@H](O)C3)cc2F)cc1F [Hydrochloride of compound 114] | 5.18 |
| CN[C@@H]1CCCN(C(=O)c2cc(-c3ccc(C#N)c(F)c3)c(-c3ccc(N4CC[C@H](O)C4)cc3F)s2)C1 [Hydrochloride of compound 115] | 1.94 |
